Hemolysis data for two molecules are collected here from publication PMC8226839, “New Perspectives in the Antimicrobial Activity of the Amphibian Temporin B: Peptide Analogs Are Effective Inhibitors of Candida albicans Growth” (Journal of Fungi, 2021).

In the data set the test system is sheep erythrocytes. The note with it: 50 μg per disk, Columbia blood agar plates, 37 °C, 24 h.

Square brackets hold non-standard residues; d marks the D form. Peptide text beside a SMILES is read from it.

For the molecule `CC[C@H](C)[C@H](NC(=O)[C@@H]1CCCN1C(=O)[C@H](CC(C)C)NC(=O)[C@H](CC(C)C)NC(=O)[C@@H](CCCCN)NC(=O)[C@H](N)CCCCN)C(=O)N[C@H](C(=O)N[C@H](CCCCN)C(=O)N[C@@H](CC(N)=O)C(=O)N[C@@H](CC(C)C)C(=O)N[C@@H](CC(C)C)C(=O)N[C@H](CCCCN)C(=O)N[C@@H](CO)C(=O)N[C@@H](CC(C)C)C(=O)N[C@@H](CC(C)C)C(N)=O)C(C)C` [D-Lys_TB_KKG6K] (H-[dK][dK]LLPIV[dK]NLL[dK]SLL-NH2), the hemolysis entry is given as “did not induce the hemolysis”.

Take `CC[C@H](C)[C@H](NC(=O)[C@@H]1CCCN1C(=O)[C@H](CC(C)C)NC(=O)[C@H](CC(C)C)NC(=O)[C@H](CCCCN)NC(=O)[C@@H](N)CCCCN)C(=O)N[C@H](C(=O)N[C@@H](CCCCN)C(=O)N[C@@H](CC(N)=O)C(=O)N[C@@H](CC(C)C)C(=O)N[C@@H](CC(C)C)C(=O)N[C@@H](CCCCN)C(=O)N[C@@H](CO)C(=O)N[C@@H](CC(C)C)C(=O)N[C@@H](CC(C)C)C(N)=O)C(C)C` [TB_KKG6K] (H-KKLLPIVKNLLKSLL-NH2): the hemolysis entry is reported as “did not induce the hemolysis”.
